Test results as given in patent publication US11485720B2, “Anti-infective agents” (University of Dundee, priority 2016, dated 2022).

What was measured:
[1] = target: T1, Plasmodium falciparum lysyl t-RNA synthetase (Pf-KRS1) (Plasmodium falciparum, UniProt Q8IDJ8); assay: Pf-KRS1 inhibition biochemical assay (Kinase-Glo, ATP depletion); details: read-out: Pf-KRS pIC50 (converted)
T1 construct: Pf KRS1-; made in house; host or cells: E. coli BL21 (DE3)
Description: Plasmodium falciparum Lysine tRNA Synthetase (KRS1) Biochemical Assay Methodology.
Lysine tRNA Synthetase (KRS1) is an enzyme which catalyses the esterification of L-Lysine to the appropriate transfer ribonucleic acid (tRNA), to form an aminoacyl-tRNA. Once the tRNA is charged, a ribosome transfers the amino acid from the tRNA onto a growing peptide, according to the genetic code.
The substrates of this reaction are L-lysine, and adenosine triphosphate (ATP), the overall reaction is: amino acid+tRNA+ATP→aminoacyl-tRNA+AMP+PPi
In this overall reaction AMP is adenosine monophosphate and PP; is inorganic pyrophosphate. The reaction progression in a biochemical assay can be tracked by the depletion of one of the substrates, in the case of this invention, ATP. This was done using the proprietary assay kit, Kinase Glo® Assay which is a luminescent kinase assay platform suitable for monitoring kinase activities using up to 10 μm ATP which is commercially available from the Promega Corporation of Madison, Wis., USA. The Kinase-Glo® Assay was performed in a single well of a multiwell plate by adding a volume of Kinase-Glo® Reagent equal to the volume of a completed kinase reaction and measuring luminescence. The resulting luminescent signal is correlated with the amount of ATP present and is inversely correlated with the amount of kinase activity. As such by use of this assay methodology a reduction of the luminescent signal is relative to the reduction in ATP as the reaction progresses. A compound which inhibits the action of KRS will show no drop in the luminescent signal from assay controls.
Assays were performed using both Plasmodium falciparum and human KRS to assess any selectivity of various test compounds.
Test compounds were solubilized in DMSO at a top concentration of 10 mM and serially diluted 1 in 3 to achieve a range of final assay concentrations of 50 μM to 2.5 nM in 10 μl reaction volume.
KRS was diluted to a working concentration of 75 nM in assay buffer (25 mM HEPES, 25 mM KOH, 10 mM MgCl2.6H2O, 50 mM KCl), and the following ‘Master Mix’ prepared in assay buffer: 0.1 mg/ml BSA, 250 μM DTT, 200 μM Spermine, 0.05% NP-40, ATP 3 μM for Pf KRS1 (4 μM for Hs KRS1), 0.4 mg/ml tRNA from Yeast, 60 μM L-Lysine, 0.5 U/ml Pyrophosphatase.
Plates were incubated at room temperature for 5 h for Pf KRS (2.5 hrs for HsKRS), then the assay stopped by the addition of 10 μl of The Kinase-Glo® Reagent Assay was performed in a single well of a multiwell plate by adding a volume of Kinase-Glo® Reagent which is commercially available from the Promega Corporation of Madison, Wis., USA. The plates were incubated in the dark for a further 15 mins before being read for luminescence on a BMG PHERAstar® FSX plate reader which is a multi-mode reader for use in high-throughput screening available from BMG Labtech if Cary, N.C., USA. Data were analysed by calculating the percentage inhibition compared to the maximum and minimum assay controls. Concentration effect curves were fitted using nonlinear regression within ActivityBase and IC50 values were determined using standard protocols.

[2] = test system: Plasmodium falciparum strain 3D7; assay: Plasmodium falciparum 3D7 in vitro growth inhibition (SYBRgreen I); format: cell-based; details: Plasmodium falciparum, 3D7; read-out: pEC50 for Pf 3D7 (converted)
Procedure: Parasite Cultures and Cytotoxicity Assay Methodology for Plasmodium falciparum. […] Growth inhibition of the Plasmodium falciparum cultures was quantified in a 10-point dose response curve with a 1 in 3 dilution series from a top assay concentration of 50 μM. This 384 well plate based fluorescence assay utilises the binding of SYBRgreen I (Thermo Fisher Scientific/Invitrogen cat. no. S7585) to double stranded DNA, which greatly increases the fluorescent signal at 528 nm after excitation at 485 nm. Mefloquine was used as a drug control to monitor the quality of the assay (Z′=0.6 to 0.8, where Z′ is a measure of the discrimination between the positive and negative controls on a screen plate). Dose-response curves were determined from a minimum of 3 independent experiments. Compound bioactivity was expressed as EC50, the effective concentration of compound causing 50% parasite death.

[3] = test system: Trypanosoma cruzi; assay: Trypanosoma cruzi intracellular imaging assay; format: cell-based; details: read-out: Trypanosoma cruzi pEC50 (converted)
Description: Assay Method for Measurement of In Vitro Inhibition of Trypanosoma cruzi. […] These experiments were run in accordance with the method of Pena et. al., Scientific Reports 5, Article number: 8771 (2015). Results from these experiments are provided in the Experimental Results hereinafter.

[4] = test system: Hep G2; assay: Hep G2 in-vitro cytotoxicity assay; format: cell-based; details: Homo sapiens, HepG2, read-out: Hs HEPG2 pEC50 (converted)
Description: In-vitro cytotoxicity studies can be carried out using Hep G2 (Human hepatocyte carcinoma, HPACC cat. no. 85011430) used as indicators for general mammalian cell toxicity. Hep G2 in-vitro cytotoxicity can be assessed using the assay procedure as described in “Use of a human-derived liver cell line for the detection of cytoprotective, antigenotoxic and cogenotoxic agents”, Volker Mersch-Sundermann, Siegfried Knasmüller, Xin-jiang Wu, Firouz Darroudi, Fekadu Kassie. J. Tox 198 (2004) 329-340) the contents of which are incorporated herein by reference.

[5] = test system: Cryptosporidium parvum; assay: In vitro Crytosporidium inhibition assay; format: cell-based; details: Cryptosporidium parvum; read-out: Cryptosporidium parvum pEC50 (converted)
Description: Assay Method for Measurement of In Vitro Inhibition of Crytosporidium.
These experiments were run in accordance with the method of Besssoff et. al. Antimicrob. Agents Chemother. 2013, 57:1804-1814. Results from these experiments are provided in the Experimental Results hereinafter.

[6] = test system: Leishmania donovani; assay: Leishmania donovani intramacrophage inhibition assay (Ld-INMAC); format: cell-based; details: intramacrophage amastigotes in THP-1 cells, read-out: Ld-INMAC pEC50 (converted)
Procedure: Assay Method for Measurement of In Vitro Inhibition of Leishmania donovani.
These experiments were run in accordance with the method as detailed herein and results from these experiments are provided in the Experimental Results hereinafter.
The intramacrophage Leishmania assay was performed as described in de Rycker et al (Antimicrob Agents Chemother, 2013 July; 57(7):2913-22. doi: 10.1128/AAC.02398-12). Briefly, 1 μl of compound was pre-dispensed into 384 well sterile intermediary plates. For single point screening, amphotericin B was added to all wells of column 24 as a positive control (final concentration 2 μM) and DMSO to column 23. For potency determinations, ten-point, one in three dilution curves were created with the highest concentration being 50 μM and on each plate a control curve of amphotericin B was included. Controls were as follows: columns 11 and 12: DMSO, columns 23 and 24: amphotericin B (final concentration 2 μM). To the intermediary plates, 100 μl of THP-1 media was added and plates were shaken for >5 min to ensure complete mixing. THP-1 cells (8,000 per well, 50 μl) were plated into black clear-bottom 384 well plates (Corning) in presence of 10 nM PMA. After 20 min at room temperature, the plates were incubated at 37° C. under 5% CO2 in a humidified incubator for 75 h. The cells were then washed with […] sterile phosphate buffered saline (PBS) supplemented with 1 mM CaCl2, 0.5 mM MgCl2, 0.1% (w/v) bovine serum albumin (PBS-A) and amastigotes were added to all wells at a multiplicity of infection of 5 (40,000 amastigotes per well). After 40 min at room temperature, plates were returned to the incubator. Amastigotes were incubated in the presence of macrophages for 16 h. Any remaining extracellular amastigotes were subsequently removed with an overflow wash of 1 ml PBS-A per well (wash buffer is being aspirated from the top of the well as it is being dispensed) followed by addition of 25 μl of the compound pre-dilutions using a Matrix Hydra DT pipetting station. The final dilution of each compound was 200-fold. Plates were incubated for 72 h and then washed (250 μl PBS-A) and fixed (4% (v/v) formaldehyde-PBS, 30 min, room temperature). After fixation, the wells were washed with 250 μl PBS, stained (10 μg/ml DAPI, 0.4 μg ml-1 HCS Cellmask Deep Red in PBS+0.1% (v/v) Triton X-100, 30 min, room temperature) and washed with 250 μl PBS. Finally, PBS+0.05% (v/v) thimerosal was added to the wells, the plates were sealed and imaged on a high-content microscope (GE IN Cell 1000 or GE IN Cell 2000) using a 10× objective. Image analysis was carried out with GE IN Cell Analyzer 1000 Workstation using the “Multi Target Analysis” module. […]

[7] = test system: THP-1 cells; assay: THP-1 host cell count in intramacrophage Leishmania assay; format: cell-based; details: Homo sapiens, host cell toxicity, read-out: THP1 pEC50 (converted)
Procedure: The intramacrophage Leishmania assay was performed as described in de Rycker et al (Antimicrob Agents Chemother, 2013 July; 57(7):2913-22. doi: 10.1128/AAC.02398-12). Briefly, 1 μl of compound was pre-dispensed into 384 well sterile intermediary plates. For single point screening, amphotericin B was added to all wells of column 24 as a positive control (final concentration 2 μM) and DMSO to column 23. For potency determinations, ten-point, one in three dilution curves were created with the highest concentration being 50 μM and on each plate a control curve of amphotericin B was included. Controls were as follows: columns 11 and 12: DMSO, columns 23 and 24: amphotericin B (final concentration 2 μM). To the intermediary plates, 100 μl of THP-1 media was added and plates were shaken for >5 min to ensure complete mixing. THP-1 cells (8,000 per well, 50 μl) were plated into black clear-bottom 384 well plates (Corning) in presence of 10 nM PMA. After 20 min at room temperature, the plates were incubated at 37° C. under 5% CO2 in a humidified incubator for 75 h. The cells were then washed with […] sterile phosphate buffered saline (PBS) supplemented with 1 mM CaCl2, 0.5 mM MgCl2, 0.1% (w/v) bovine serum albumin (PBS-A) and amastigotes were added to all wells at a multiplicity of infection of 5 (40,000 amastigotes per well). After 40 min at room temperature, plates were returned to the incubator. Amastigotes were incubated in the presence of macrophages for 16 h. Any remaining extracellular amastigotes were subsequently removed with an overflow wash of 1 ml PBS-A per well (wash buffer is being aspirated from the top of the well as it is being dispensed) followed by addition of 25 μl of the compound pre-dilutions using a Matrix Hydra DT pipetting station. The final dilution of each compound was 200-fold. Plates were incubated for 72 h and then washed (250 μl PBS-A) and fixed (4% (v/v) formaldehyde-PBS, 30 min, room temperature). After fixation, the wells were washed with 250 μl PBS, stained (10 μg/ml DAPI, 0.4 μg ml-1 HCS Cellmask Deep Red in PBS+0.1% (v/v) Triton X-100, 30 min, room temperature) and washed with 250 μl PBS. Finally, PBS+0.05% (v/v) thimerosal was added to the wells, the plates were sealed and imaged on a high-content microscope (GE IN Cell 1000 or GE IN Cell 2000) using a 10× objective. Image analysis was carried out with GE IN Cell Analyzer 1000 Workstation using the “Multi Target Analysis” module. Settings for segmentation were as follows: nuclei: minimum area: 142.384 μm^2, sensitivity: 81, method: top-hat; cells: characteristic area: 2500 μm^2, sensitivity: 60, method: multiscale top-hat; organelles (amastigotes): granule size 1-3, 3 scales, sensitivity: 90, detection in entire cell. […]

[8] = test system: Leishmania donovani; assay: Ld-cAxAm-TP-pMIC assay; format: cell-based; details: read-out: Ld-cAxAm-TP-pMIC pEC50 (converted)

T1 sequence (Q8IDJ8 entry or part of it, looked up, natural form): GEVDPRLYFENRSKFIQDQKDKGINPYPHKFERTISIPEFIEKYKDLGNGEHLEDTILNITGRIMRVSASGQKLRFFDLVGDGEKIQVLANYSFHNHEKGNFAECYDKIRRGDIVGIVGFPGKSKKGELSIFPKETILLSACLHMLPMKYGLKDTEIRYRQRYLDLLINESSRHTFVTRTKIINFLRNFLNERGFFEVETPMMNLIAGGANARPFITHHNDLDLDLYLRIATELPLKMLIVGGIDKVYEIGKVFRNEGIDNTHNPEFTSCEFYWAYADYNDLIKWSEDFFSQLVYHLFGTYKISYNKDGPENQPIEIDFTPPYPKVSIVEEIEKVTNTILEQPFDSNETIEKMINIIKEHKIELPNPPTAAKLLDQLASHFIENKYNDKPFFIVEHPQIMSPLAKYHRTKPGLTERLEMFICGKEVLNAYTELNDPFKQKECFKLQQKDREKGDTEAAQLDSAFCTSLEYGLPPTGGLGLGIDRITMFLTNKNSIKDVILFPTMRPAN

Row | Structure (SMILES) | IC50 [1] [nM] | EC50 [2] [nM] | EC50 [3] [nM] | EC50 [4] [nM] | EC50 [5] [nM] | EC50 [6] [nM] | EC50 [7] [nM] | EC50 [8] [nM]
1 | Nc1cccc2c(=O)cc(C(=O)NCC3CCCCC3)oc12 [Example 83, 8-Amino-N-(cyclohexylmethyl)-4-oxo-4H-chromene-2-carboxamide] | 50.1 | 20 | 158 | 7940 |  |  |  | 
2 | O=C(NCC1(O)CCCCC1)c1cc(=O)c2cc(O)ccc2o1 [Example 13, 6-hydroxy-N-[(1-hydroxycyclohexyl)methyl]-4-oxo-chromene-2-carboxamide] | 79.4 | 50.1 | 251 | 20000 | 120 |  |  | 
3 | Nc1cc(F)cc2c(=O)cc(C(=O)NCC3CCC(F)(F)C3)oc12 (stereo not drawn) [Example 95, 8-amino-N-[(3,3-difluorocyclopentyl)methyl]-6-fluoro-4-oxo-4H-chromene-2-carboxamide] |  | 50.1 | 63.1 |  |  |  |  | 
4 | Nc1cc(F)cc2c(=O)cc(C(=O)NCC3CCCCC3)oc12 [Example 99, 8-amino-N-(cyclohexylmethyl)-6-fluoro-4-oxo-chromene-2-carboxamide] | 50.1 | 10 | 25.1 | 5010 | 15.8 |  |  | 
5 | O=C(NCC1CCCCC1)c1cc(=O)c2cc(F)ccc2o1 [Example 31, N-(cyclohexylmethyl)-6-fluoro-4-oxo-chromene-2-carboxamide] | 79.4 | 316 | 126 | 50100 | 631 |  |  | 
6 | O=C(NCC1(O)CCCCC1)c1cc(=O)c2cc(Cl)ccc2o1 [Example 48, 6-chloro-N-[(1-hydroxycyclohexyl)methyl]-4-oxo-chromene-2-carboxamide] | 126 | 398 |  | 31600 | 63.1 | 7940 | > 50100 | 10000
7 | O=C(NCC1CCCCC1)c1cc(=O)c2cccc(O)c2o1 [Example 12, N-(cyclohexylmethyl)-8-hydroxy-4-oxo-chromene-2-carboxamide] |  |  | 316 | 25100 |  |  |  | 
